Results: patent US9586962B2, “Disubstituted octahydropyrrolo [3,4-C] pyrroles as orexin receptor modulators” (Janssen Pharmaceutica NV, priority 2011, dated 2017)

target: human orexin 2 receptor (Homo sapiens (Human), UniProt O43614); test: Human orexin 2 receptor Ca2+ mobilization assay (FLIPR, PFSK cells, orexin B 100 nM); type: cell-based; settings: modified Cheng-Prusoff correction, read-out: OR 2 Kb
Procedure: Human Orexin 2 Receptor Ca^2+ Mobilization Assay
Cells were seeded on to 96-well Packard viewplates at a density of 50,000 cells/well and incubated overnight at 37° C., 5% CO2. The cells were dye-loaded with 4 μM Ca^2+ dye Fluo-3AM in serum-free DMEM/F-12 with 2.5 mM probenecid and incubated at 37° C., 5% CO2 for one hour. Cells were pre-incubated with compounds (diluted in DMEM/F-12) for 30 minutes before agonist (orexin B, 100 nM) stimulation. Ligand-induced Ca^2+ release was measured using a Fluorometric Imaging Plate Reader (FLIPR, Molecular Devices, Sunnyvale, Calif.). Functional responses were measured as peak fluorescence intensity minus basal. The concentration of agonist that produced a half-maximal response is represented by the EC50 value. Antagonistic potency values were converted to apparent pKB values using a modified Cheng-Prusoff correction. Apparent pKB=−log IC50/1+[conc agonist/EC50]. Data are expressed as mean±S.E.M, the designation of NT means not tested.

Chain of human orexin 2 receptor (O43614 whole entry): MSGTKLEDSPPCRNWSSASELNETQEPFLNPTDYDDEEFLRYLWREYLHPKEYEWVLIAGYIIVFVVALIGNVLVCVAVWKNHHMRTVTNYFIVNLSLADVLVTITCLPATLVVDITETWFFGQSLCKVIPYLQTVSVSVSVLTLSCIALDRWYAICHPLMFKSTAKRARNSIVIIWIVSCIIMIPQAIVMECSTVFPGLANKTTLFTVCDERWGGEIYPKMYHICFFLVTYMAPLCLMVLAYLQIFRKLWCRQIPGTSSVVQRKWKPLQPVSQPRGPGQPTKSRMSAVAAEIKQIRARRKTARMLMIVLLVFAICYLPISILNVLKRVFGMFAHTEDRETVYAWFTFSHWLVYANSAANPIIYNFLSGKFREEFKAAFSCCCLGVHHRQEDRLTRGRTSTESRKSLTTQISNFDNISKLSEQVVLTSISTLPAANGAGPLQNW

Compound | Kb [nM]
Cc1cc(C)nc(N2CC3CN(C(=O)c4nc(C)sc4-c4ccccc4F)CC3C2)n1 (centres unmarked) [Example 132, 2-(4,6-Dimethylpyrimidin-2-yl)-5-{[5-(2-fluorophenyl)-2-methyl-1,3-thiazol-4-yl]carbonyl}octahydropyrrolo[3,4-c]pyrrole] | 79
CN(C)c1nc(N2CC3CN(C(=O)c4cc(F)ccc4-c4ncccn4)CC3C2)cc(C(F)(F)F)n1 (centres unmarked) [Example 109, 4-{5-[(5-Fluoro-2-pyrimidin-2-ylphenyl)carbonyl]hexahydropyrrolo[3,4-c]pyrrol-2(1H)-yl}-N,N-dimethyl-6-(trifluoromethyl)pyrimidin-2-amine] | 25
Cc1cc(C)nc(N2CC3CN(C(=O)c4ccccc4-c4nc(C)no4)CC3C2)n1 (centres unmarked) [Example 306, 2-(4,6-Dimethylpyrimidin-2-yl)-5-{[2-(3-methyl-1,2,4-oxadiazol-5-yl)phenyl]carbonyl}octahydropyrrolo[3,4-c]pyrrole] | 13
Cc1nc(N2CC3CN(C(=O)c4ccccc4-c4ncn(C)n4)CC3C2)nc(C)c1C (centres unmarked) [Example 311, 2-{[2-(1-Methyl-1H-1,2,4-triazol-3-yl)phenyl]carbonyl}-5-(4,5,6-trimethylpyrimidin-2-yl)octahydropyrrolo[3,4-c]pyrrole] | 3
Cc1ccc2ccccc2c1C(=O)N1CC2CN(c3nccc(-c4ccccc4)n3)CC2C1 (centres unmarked) [Example 25, 2-[(2-Methylnaphthalen-1-yl)carbonyl]-5-(4-phenylpyrimidin-2-yl)octahydropyrrolo[3,4-c]pyrrole] | 99
Cc1cc(C)nc(N2CC3CN(C(=O)c4ccccc4-c4nnc[nH]4)CC3C2)n1 (centres unmarked) [Example 14, 2-(4,6-Dimethylpyrimidin-2-yl)-5-{[2-(1H-1,2,4-triazol-5-yl)phenyl]carbonyl}octahydro-pyrrolo[3,4-c]pyrrole] | 9
COc1ccc(C(=O)N2CC3CN(c4ncc(F)c(C)n4)CC3C2)c(-n2nccn2)c1 (centres unmarked) [Example 377, 2-(5-Fluoro-4-methylpyrimidin-2-yl)-5-{[4-methoxy-2-(2H-1,2,3-triazol-2-yl)phenyl]carbonyl}octahydropyrrolo[3,4-c]pyrrole] | 2
Cc1cnc(C)c(N2CC3CN(C(=O)c4c(F)cccc4-n4nccn4)CC3C2)n1 (centres unmarked) [Example 101, 2-(3,6-Dimethylpyrazin-2-yl)-5-{[2-fluoro-6-(2H-1,2,3-triazol-2-yl)phenyl]carbonyl}octahydropyrrolo[3,4-c]pyrrole] | 25
Cc1nc(N2CC3CN(C(=O)c4cccc(F)c4-n4nccn4)CC3C2)nc(C)c1C (centres unmarked) [Example 240, (3-Fluoro-2-(2H-1,2,3-triazol-2-yl)phenyl)(5-(4,5,6-trimethylpyrimidin-2-yl)hexahydropyrrolo[3,4-c]pyrrol-2(1H)-yl)methanone] | 3
Cc1noc(-c2ccccc2C(=O)N2CC3CN(c4nc(C)c(C)c(C)n4)CC3C2)n1 (centres unmarked) [Example 309, 2-{[2-(3-Methyl-1,2,4-oxadiazol-5-yl)phenyl]carbonyl}-5-(4,5,6-trimethylpyrimidin-2-yl)octahydropyrrolo[3,4-c]pyrrole] | 6
Cc1cc(C)nc(N2CC3CN(C(=O)c4ccccc4-c4cccs4)CC3C2)n1 (centres unmarked) [Example 43, 2-(4,6-Dimethylpyrimidin-2-yl)-5-[(2-thiophen-2-ylphenyl)carbonyl]octahydro-pyrrolo[3,4-c]pyrrole] | 10
Cc1cc(C)nc(N2CC3CN(C(=O)c4ccc(F)cc4-c4ncccn4)CC3C2)n1 (centres unmarked) [Example 231, (5-(4,6-Dimethylpyrimidin-2-yl)hexahydropyrrolo[3,4-c]pyrrol-2(1H)-yl)(4-fluoro-2-(pyrimidin-2-yl)phenyl)methanone] | 7
CCOc1ccc2ccccc2c1C(=O)N1CC2CN(c3nccc(-c4ccccc4)n3)CC2C1 (centres unmarked) [Example 126, 2-[(2-Ethoxynaphthalen-1-yl)carbonyl]-5-(4-phenylpyrimidin-2-yl)octahydro pyrrolo[3,4-c]pyrrole] | 100
COc1ccc(C(=O)N2CC3CN(c4ncc(C)c(C)n4)CC3C2)c(-n2nccn2)c1 (centres unmarked) [Example 380, 2-(4,5-Dimethylpyrimidin-2-yl)-5-{[4-methoxy-2-(2H-1,2,3-triazol-2-yl)phenyl]carbonyl}octahydropyrrolo[3,4-c]pyrrole] | 5
Cc1cc(C)nc(N2CC3CN(C(=O)c4cccc(F)c4-c4ccn[nH]4)CC3C2)n1 (centres unmarked) [Example 284, 2-(4,6-Dimethylpyrimidin-2-yl)-5-{[3-fluoro-2-(1H-pyrazol-5-yl)phenyl]carbonyl}octahydropyrrolo[3,4-c]pyrrole] | 2
Cc1cncc(N2CC3CN(C(=O)c4ccccc4-n4nccn4)CC3C2)n1 (centres unmarked) [Example 211, [5-(6-Methyl-pyrazin-2-yl)-hexahydro-pyrrolo[3,4-c]pyrrol-2-yl]-(2-[1,2,3]triazol-2-yl-phenyl)-methanone] | 25

Compound | Kb [nM]
Cc1nc(N2CC3CN(C(=O)c4ncccc4-n4nccn4)CC3C2)nc(C)c1F (centres unmarked) [Example 325, 2-(5-Fluoro-4,6-dimethylpyrimidin-2-yl)-5-{[3-(2H-1,2,3-triazol-2-yl)pyridin-2-yl]carbonyl}octahydropyrrolo[3,4-c]pyrrole] | 2
Cc1cc(C)nc(N2CC3CN(C(=O)c4c(-n5nccn5)ccc5c4OCO5)CC3C2)n1 (centres unmarked) [Example 327, [5-(4,6-Dimethyl-pyrimidin-2-yl)-hexahydro-pyrrolo[3,4-c]pyrrol-2-yl]-(5-[1,2,3]triazol-2-yl-benzo[1,3]dioxol-4-yl)methanone] | 50
Cc1cnc(C)c(N2CC3CN(C(=O)c4ccccc4-c4ncn[nH]4)CC3C2)n1 (centres unmarked) [Example 213, [5-(3,6-Dimethyl-pyrazin-2-yl)-hexahydro-pyrrolo[3,4-c]pyrrol-2-yl]-[2-(2H-[1,2,4]triazol-3-yl)-phenyl]-methanone] | 50
COc1ccnc(N2CC3CN(C(=O)c4ccc(F)cc4-n4nccn4)CC3C2)n1 (centres unmarked) [Example 159, 2-{[4-Fluoro-2-(2H-1,2,3-triazol-2-yl)phenyl]carbonyl}-5-(4-methoxypyrimidin-2-yl)octahydropyrrolo[3,4-c]pyrrole] | 8
Cc1cccc(-c2c(F)cccc2C(=O)N2CC3CN(c4nc(C)cc(C)n4)CC3C2)n1 (centres unmarked) [Example 370, (5-(4,6-Dimethylpyrimidin-2-yl)hexahydropyrrolo[3,4-c]pyrrol-2(1H)-yl)(3-fluoro-2-(6-methylpyridin-2-yl)phenyl)methanone] | 7
Cc1cc(N2CC3CN(C(=O)c4ccccc4-c4nnc[nH]4)CC3C2)nc(C(F)(F)F)n1 (centres unmarked) [Example 96, 2-[6-Methyl-2-(trifluoromethyl)pyrimidin-4-yl]-5-{[2-(4H-1,2,4-triazol-3-yl)phenyl]carbonyl}octahydropyrrolo[3,4-c]pyrrole] | 50
O=C(c1cc(F)ccc1-c1ncccn1)N1CC2CN(c3cnc4ccccc4n3)CC2C1 (centres unmarked) [Example 146, 2-{5-[(5-Fluoro-2-pyrimidin-2-ylphenyl)carbonyl]hexahydropyrrolo[3,4-c]pyrrol-2(1H)-yl}quinoxaline] | 16
Cc1cc(C)nc(N2CC3CN(C(=O)c4sccc4-c4ccccc4)CC3C2)n1 (centres unmarked) [Example 12, 2-(4,6-Dimethylpyrimidin-2-yl)-5-[(3-phenylthiophen-2-yl)carbonyl]octahydropyrrolo[3,4-c]pyrrole] | 32
COc1cc(OC)nc(N2CC3CN(C(=O)c4c(F)cccc4-c4ncccn4)CC3C2)n1 (centres unmarked) [Example 68, 2-(4,6-Dimethoxypyrimidin-2-yl)-5-[(2-fluoro-6-pyrimidin-2-ylphenyl)carbonyl]octahydropyrrolo[3,4-c]pyrrole] | 16
Cc1cncc(N2CC3CN(C(=O)c4ccc(F)cc4-n4nccn4)CC3C2)n1 (centres unmarked) [Example 158, 2-{[4-Fluoro-2-(2H-1,2,3-triazol-2-yl)phenyl]carbonyl}-5-(6-methylpyrazin-2-yl)octahydropyrrolo[3,4-c]pyrrole] | 8
CN(C)c1nc(N2CC3CN(C(=O)c4ccccc4-n4nccn4)CC3C2)cc(C(F)(F)F)n1 (centres unmarked) [Example 121, N,N-Dimethyl-4-[5-{[2-(2H-1,2,3-triazol-2-yl)phenyl]carbonyl}hexahydropyrrolo[3,4-c]pyrrol-2(1H)-yl]-6-(trifluoromethyl)pyrimidin-2-amine] | 13
Cc1cc(C)nc(N2CC3CN(C(=O)c4ccccc4OC(F)(F)F)CC3C2)n1 (centres unmarked) [Example 274, (5-(4,6-Dimethylpyrimidin-2-yl)hexahydropyrrolo[3,4-c]pyrrol-2(1H)-yl)(2-(trifluoromethoxy)phenyl)methanone] | 16
O=C(c1ccccc1-c1cccs1)N1CC2CN(c3cnc4ccccc4n3)CC2C1 (centres unmarked) [Example 19, 2-{5-[(2-Thiophen-2-ylphenyl)carbonyl]hexahydropyrrolo[3,4-c]pyrrol-2(1H)-yl}quinoxaline] | 31
O=C(c1cccc(F)c1-c1ncccn1)N1CC2CN(c3ncc4cc(F)ccc4n3)CC2C1 (centres unmarked) [Example 243, (3-Fluoro-2-(pyrimidin-2-yl)phenyl)(5-(6-fluoroquinazolin-2-yl)hexahydropyrrolo[3,4-c]pyrrol-2(1H)-yl)methanone] | 6
COc1cc(N2CC3CN(C(=O)c4cc(F)ccc4-n4nccn4)CC3C2)nc(N(C)C)n1 (centres unmarked) [Example 4, 4-[5-{[5-Fluoro-2-(2H-1,2,3-triazol-2-yl)phenyl]carbonyl}hexahydropyrrolo[3,4-c]pyrrol-2(1H)-yl]-6-methoxy-N,N-dimethylpyrimidin-2-amine] | 32
CN(C)c1cc(N2CC3CN(C(=O)c4ccc(F)cc4-n4nccn4)CC3C2)nc(C(F)(F)F)n1 (centres unmarked) [Example 6, 6-[5-{[4-Fluoro-2-(2H-1,2,3-triazol-2-yl)phenyl]carbonyl}hexahydropyrrolo[3,4-c]pyrrol-2(1H)-yl]-N,N-dimethyl-2-(trifluoromethyl)pyrimidin-4-amine] | 25
